Measurements taken from ChEMBL document CHEMBL1201862, “PubChem BioAssay data set” (2004).
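Five concentrations, 48 hours, 96-well plates. Abbreviation: GI50, concentration required for 50% inhibition of growth.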 The source made the active and inactive calls. Cut-off read from the data, not from the text of the source: active = GI50 up to about 1.1 µM and inactive = higher. Non-standard residues stand in square brackets, D forms with d. Residues, ends and D or L forms follow the SMILES beside them. ξ: configuration not given here. *: point of attachment. X18 = COC1=CC(=O)N(C(=O)C(O*)C(C)C)C1Cc1ccccc1; ξNMe2Val = CC(C)C(C(=O)*)N(C)C; NMeV = CN[CH](C(=O)O)C(C)C

How the values were obtained:
Assay in all cases: inhibition of tumour cell growth, NCI panel, 48 h
KM12 = system: KM12
NCI-H226 = system: NCI-H226
NCI-H522 = system: NCI-H522
SNB-19 = system: SNB-19
UO-31 = system: UO-31
NCI-H23 = system: NCI-H23
COLO 205 = system: COLO 205
SN12C = system: SN12C
IGROV-1 = system: IGROV-1
SK-MEL-28 = system: SK-MEL-28
Hs-578T = system: Hs-578T
NCI/ADR-RES = system: NCI/ADR-RES
M14 = system: M14
U-251 = system: U-251
MCF7 = system: MCF7
RPMI-8226 = system: RPMI-8226
786-0 = system: 786-0
SR = system: SR
OVCAR-4 = system: OVCAR-4
A498 = system: A498

Q: What does the source list for `COC1=CC(=O)N(C(=O)C(OC(=O)C2CCCN2C(=O)C2CCCN2C(=O)C(C(C)C)N(C)C(=O)C(NC(=O)C(C(C)C)N(C)C)C(C)C)C(C)C)C1Cc1ccccc1` (configuration not stated) (ξNMe2Val-V[NMeV]PP-X18; configuration not given here)?
A: GI50 (KM12): 0.00238 µM (active); GI50 (NCI-H226): 0.00773 µM (active); GI50 (NCI-H522): 0.000347 µM (active); GI50 (SNB-19): 0.00629 µM (active); GI50 (UO-31): 0.00938 µM (active); GI50 (NCI-H23): 0.00315 µM (active); GI50 (COLO 205): 0.00163 µM (active); GI50 (SN12C): 0.00188 µM (active); GI50 (IGROV-1): 0.00231 µM (active); GI50 (SK-MEL-28): 0.00309 µM (active); GI50 (Hs-578T): 0.000188 µM (active); GI50 (NCI/ADR-RES): 0.0234 µM (active); GI50 (M14): 0.0027 µM (active); GI50 (U-251): 0.00235 µM (active); GI50 (MCF7): 0.00024 µM (active); GI50 (RPMI-8226): 0.000524 µM (active); GI50 (786-0): 0.00223 µM (active); GI50 (SR): 0.000251 µM (active); GI50 (OVCAR-4): 0.00826 µM (active); GI50 (A498): 0.00424 µM (active)

Q: Which results are given for `COc1ccccc1N1CCN(CCCNC(=O)c2cc(Cl)c(N)c(Cl)c2)CC1`?
A: GI50 (KM12): 26.9 µM (inactive); GI50 (NCI-H226): 28.4 µM (inactive); GI50 (SNB-19): 41.3 µM (inactive); GI50 (UO-31): 21.9 µM (inactive); GI50 (NCI-H23): 49.7 µM (inactive); GI50 (COLO 205): > 10 µM (inactive); GI50 (SN12C): 20 µM (inactive); GI50 (IGROV-1): 71.6 µM (inactive); GI50 (SK-MEL-28): 32.4 µM (inactive); GI50 (Hs-578T): 67.1 µM (inactive); GI50 (NCI/ADR-RES): 36.8 µM (inactive); GI50 (M14): 19.4 µM (inactive); GI50 (U-251): 27 µM (inactive); GI50 (MCF7): 35.2 µM (inactive); GI50 (RPMI-8226): 18.7 µM (inactive); GI50 (786-0): 33.3 µM (inactive); GI50 (SR): 12.7 µM (inactive); GI50 (OVCAR-4): 52 µM (inactive); GI50 (A498): 42 µM (inactive)

Q: For `CN(C)CCNC(=O)Cn1ccc(=O)c2ccc([N+](=O)[O-])cc21`, which GI50 (KM12) is on record?
A: > 100 µM (inactive)

Q: What about the GI50 (NCI-H226) of the same compound?
A: > 100 µM (inactive)

Q: What about the GI50 (NCI-H522) of the same compound?
A: > 100 µM (inactive)

Q: What about the GI50 (SNB-19) of the same compound?
A: > 100 µM (inactive)

Q: And the GI50 (UO-31)?
A: > 100 µM (inactive)

Q: What about the GI50 (NCI-H23) of the same compound?
A: > 100 µM (inactive)

Q: What about the GI50 (COLO 205) of the same compound?
A: 47.1 µM (inactive)

Q: And the GI50 (SN12C)?
A: > 100 µM (inactive)

Q: And the GI50 (IGROV-1)?
A: > 100 µM (inactive)

Q: What about the GI50 (SK-MEL-28) of the same compound?
A: > 100 µM (inactive)

Q: And the GI50 (Hs-578T)?
A: > 100 µM (inactive)

Q: What about the GI50 (NCI/ADR-RES) of the same compound?
A: > 100 µM (inactive)

Q: And the GI50 (M14)?
A: > 100 µM (inactive)

Q: What about the GI50 (U-251) of the same compound?
A: > 100 µM (inactive)

Q: What about the GI50 (MCF7) of the same compound?
A: > 100 µM (inactive)

Q: What about the GI50 (RPMI-8226) of the same compound?
A: > 100 µM (inactive)

Q: What about the GI50 (786-0) of the same compound?
A: > 100 µM (inactive)

Q: What about the GI50 (SR) of the same compound?
A: > 100 µM (inactive)

Q: And the GI50 (OVCAR-4)?
A: 17.5 µM (inactive)

Q: And the GI50 (A498)?
A: > 100 µM (inactive)

Q: `OCCCCCNc1nc(O)c2[nH]cnc2n1` was tested. Which GI50 (KM12) did it give?
A: > 100 µM (inactive)

Q: And the GI50 (NCI-H226)?
A: > 100 µM (inactive)

Q: What about the GI50 (NCI-H522) of the same compound?
A: > 100 µM (inactive)

Q: What about the GI50 (SNB-19) of the same compound?
A: > 100 µM (inactive)

Q: And the GI50 (UO-31)?
A: > 100 µM (inactive)

Q: And the GI50 (NCI-H23)?
A: > 100 µM (inactive)

Q: And the GI50 (COLO 205)?
A: > 100 µM (inactive)

Q: What about the GI50 (SN12C) of the same compound?
A: > 100 µM (inactive)

Q: And the GI50 (IGROV-1)?
A: > 100 µM (inactive)

Q: What about the GI50 (Hs-578T) of the same compound?
A: 90.8 µM (inactive)

Q: And the GI50 (NCI/ADR-RES)?
A: > 100 µM (inactive)

Q: And the GI50 (M14)?
A: > 100 µM (inactive)

Q: What about the GI50 (U-251) of the same compound?
A: > 100 µM (inactive)

Q: And the GI50 (MCF7)?
A: > 10 µM (inactive)

Q: What about the GI50 (RPMI-8226) of the same compound?
A: > 100 µM (inactive)

Q: And the GI50 (786-0)?
A: > 100 µM (inactive)

Q: And the GI50 (SR)?
A: > 100 µM (inactive)

Q: And the GI50 (OVCAR-4)?
A: > 100 µM (inactive)

Q: And the GI50 (A498)?
A: > 100 µM (inactive)

Q: For `Cc1cc2nc(N3C(=O)/C(=C/c4ccccc4S)N=C3c3ccccc3)sc2cc1C`, which GI50 (KM12) is on record?
A: 34 µM (inactive)

Q: What about the GI50 (SNB-19) of the same compound?
A: 55.8 µM (inactive)

Q: What about the GI50 (UO-31) of the same compound?
A: 26.1 µM (inactive)

Q: And the GI50 (COLO 205)?
A: 30.6 µM (inactive)

Q: What about the GI50 (SN12C) of the same compound?
A: 25.8 µM (inactive)

Q: What about the GI50 (IGROV-1) of the same compound?
A: 18.8 µM (inactive)

Q: And the GI50 (SK-MEL-28)?
A: 54.2 µM (inactive)

Q: What about the GI50 (Hs-578T) of the same compound?
A: 39.2 µM (inactive)

Q: What about the GI50 (NCI/ADR-RES) of the same compound?
A: 26.7 µM (inactive)

Q: What about the GI50 (M14) of the same compound?
A: 34 µM (inactive)

Q: What about the GI50 (U-251) of the same compound?
A: 31.5 µM (inactive)

Q: And the GI50 (MCF7)?
A: 20 µM (inactive)

Q: And the GI50 (RPMI-8226)?
A: 19.2 µM (inactive)

Q: What about the GI50 (786-0) of the same compound?
A: 18.7 µM (inactive)

Q: What about the GI50 (SR) of the same compound?
A: 33.2 µM (inactive)

Q: What about the GI50 (OVCAR-4) of the same compound?
A: 43.1 µM (inactive)

Q: What about the GI50 (A498) of the same compound?
A: 21.7 µM (inactive)

Q: Which results are given for `O=C1/C(=C/c2ccc(Br)s2)NC(=S)N1CN1CCOCC1`?
A: GI50 (KM12): 84.3 µM (inactive); GI50 (NCI-H226): 34.5 µM (inactive); GI50 (NCI-H522): 64 µM (inactive); GI50 (SNB-19): > 100 µM (inactive); GI50 (UO-31): 37.5 µM (inactive); GI50 (NCI-H23): 36.3 µM (inactive); GI50 (COLO 205): 33 µM (inactive); GI50 (SN12C): 45.4 µM (inactive); GI50 (IGROV-1): 57.4 µM (inactive); GI50 (SK-MEL-28): 40.4 µM (inactive); GI50 (Hs-578T): 65.3 µM (inactive); GI50 (NCI/ADR-RES): 64.9 µM (inactive); GI50 (U-251): 43 µM (inactive); GI50 (MCF7): 25.1 µM (inactive); GI50 (RPMI-8226): 16.7 µM (inactive); GI50 (786-0): 43 µM (inactive); GI50 (SR): 21.5 µM (inactive); GI50 (OVCAR-4): 61.9 µM (inactive); GI50 (A498): 35.9 µM (inactive)

Q: With `O=[N+]([O-])c1ccc2nc(O)c(/C=C(\O)c3ccccc3)nc2c1` as the compound, how does the GI50 (KM12) read?
A: 4.81 µM (inactive)

Q: What about the GI50 (NCI-H226) of the same compound?
A: 17.6 µM (inactive)

Q: And the GI50 (NCI-H522)?
A: 12.5 µM (inactive)

Q: And the GI50 (SNB-19)?
A: 8.09 µM (inactive)

Q: What about the GI50 (UO-31) of the same compound?
A: 48.9 µM (inactive)

Q: What about the GI50 (NCI-H23) of the same compound?
A: 17.2 µM (inactive)

Q: What about the GI50 (COLO 205) of the same compound?
A: > 100 µM (inactive)

Q: What about the GI50 (SN12C) of the same compound?
A: 12.2 µM (inactive)

Q: What about the GI50 (IGROV-1) of the same compound?
A: 20.6 µM (inactive)

Q: And the GI50 (Hs-578T)?
A: 2.23 µM (inactive)

Q: What about the GI50 (NCI/ADR-RES) of the same compound?
A: 10 µM (inactive)

Q: And the GI50 (M14)?
A: > 100 µM (inactive)

Q: And the GI50 (U-251)?
A: 5.42 µM (inactive)

Q: And the GI50 (MCF7)?
A: 13.4 µM (inactive)

Q: And the GI50 (786-0)?
A: 4.78 µM (inactive)

Q: And the GI50 (SR)?
A: 17.9 µM (inactive)

Q: And the GI50 (OVCAR-4)?
A: 2.86 µM (inactive)

Q: And the GI50 (A498)?
A: 12.5 µM (inactive)
